Measurements: ChEMBL document CHEMBL5303304, “EUbOPEN Chemogenomics Library - IncuCyte” (2023)

What was measured:
Format in all cases: toxicity, cell-based
U2OS = test: Incucyte cell viability with U2OS; conditions: human, 10 µM, compound concentration 10 uM
HEK-293T = test: Incucyte cell viability with HEK293T; conditions: human, 10 µM, compound concentration 10 uM
Fibroblast = test: Incucyte cell viability with human fibroblast; conditions: 10 µM, compound concentration 10 uM
Further: unitless GR value; below 1 slowed growth and below 0 cell loss.

Row | SMILES | Growth Rate (U2OS; 0 h, replicate number 1) | Growth Rate (U2OS; 6 h, replicate number 1) | Growth Rate (U2OS; 24 h, replicate number 1) | Growth Rate (HEK-293T; 0 h, replicate number 1) | Growth Rate (HEK-293T; 0 h, replicate number 2) | Growth Rate (HEK-293T; 6 h, replicate number 1) | Growth Rate (HEK-293T; 18 h, replicate number 1) | Growth Rate (HEK-293T; 24 h, replicate number 1) | Growth Rate (Fibroblast; 0 h, replicate number 2) | Growth Rate (Fibroblast; 6 h, replicate number 1) | Growth Rate (Fibroblast; 24 h, replicate number 1) | Growth Rate (U2OS; 12 h, replicate number 2) | Growth Rate (HEK-293T; 12 h, replicate number 1) | Growth Rate (Fibroblast; 6 h, replicate number 2) | Growth Rate (Fibroblast; 24 h, replicate number 2) | Growth Rate (U2OS; 0 h, replicate number 2) | Growth Rate (Fibroblast; 12 h, replicate number 2) | Growth Rate (Fibroblast; 18 h, replicate number 2) | Growth Rate (Fibroblast; 0 h, replicate number 1) | Growth Rate (Fibroblast; 18 h, replicate number 1) | other results
1 | O=C(O)CCCCN(CCc1ccccc1OCc1ccc(CCc2ccccc2)cc1)Cc1ccc(C(=O)O)cc1 | 0.14 | 0.32 | 0.86 | 0.96 | 0.47 | 0.91 | 0.87 | 0.99 | -0.44 | 0.92 | 0.98 | – | – | – | – | – | – | – | – | – | Growth Rate (U2OS; 12 h, replicate number 1): 0.91; Growth Rate (U2OS; 18 h, replicate number 1): 0.83
2 | O=C(O)C[C@H]1CC[C@H](c2ccc(NC(=O)c3nnc(Nc4ccc(F)c(F)c4)o3)cc2)CC1 | – | – | – | 0.29 | -0.23 | 0.74 | 0.76 | 0.86 | – | – | – | 0.72 | 0.69 | 0.97 | 0.99 | – | – | – | – | – | Growth Rate (U2OS; 6 h, replicate number 2): 0.7; Growth Rate (U2OS; 18 h, replicate number 2): 0.93; Growth Rate (U2OS; 24 h, replicate number 2): 0.96
3 | CCC(C)(C)CC[C@H](NC(=O)N1CCOCC1)C(=O)NC1(C#N)CCN(C)CC1 | 0.09 | 1 | 0.88 | 0.93 | -0.17 | – | – | – | – | 0.76 | – | 0.96 | – | -0.59 | 0.95 | -0.03 | 0.5 | 0.95 | – | – | Growth Rate (HEK-293T; 12 h, replicate number 2): 0.91
4 | O=C(O)c1ccc(OCCCc2ccc(OCCCCOC3CCCCC3)cc2)c(C(=O)NC2CCCC(C(=O)O)C2)c1 (stereo not given) | – | – | 0.89 | -0.01 | – | 0.96 | – | – | – | – | – | – | 0.94 | -0.02 | 0.73 | – | 0.19 | 0.41 | – | – | Growth Rate (HEK-293T; 18 h, replicate number 2): 0.94; Growth Rate (HEK-293T; 24 h, replicate number 2): 0.92
5 | COP(=O)(CCC(N)C(=O)O)Oc1cccc(CC(=O)O)c1 (stereo not given) | 0.98 | 0.8 | – | 0.66 | – | – | 0.94 | 0.92 | -0.57 | 0.49 | 0.74 | 0.91 | 0.97 | – | – | – | – | – | -1 | 0.86 | Growth Rate (U2OS; 24 h, replicate number 2): 0.93; Growth Rate (Fibroblast; 12 h, replicate number 1): 0.92
6 | CN(C)C(=O)Cn1cc(-c2ccc(-c3cncc4ccccc34)cc2)cn1 | 0.61 | 0.46 | 0.9 | 0.29 | 0.39 | 0.92 | – | – | – | 0.8 | – | 0.83 | – | -0.33 | – | – | 0.98 | – | -1 | – | Growth Rate (U2OS; 18 h, replicate number 1): 0.99
7 | CC(=O)c1c(C)c2cnc(Nc3ccc(N4CCN(CCOCCOCCOCCNC(=O)COc5cccc6c5C(=O)N(C5CCC(=O)NC5=O)C6=O)CC4)cn3)nc2n(C2CCCC2)c1=O (stereo not given) | – | – | – | 0.95 | – | – | – | – | 0.18 | – | – | 0.93 | – | – | 0.89 | – | 0.92 | – | – | – | Growth Rate (U2OS; 12 h, replicate number 1): 0.99
8 | O=C(O)c1ccc2c(c1)nc(NCc1ccccc1)c1ncncc12 | 0.98 | – | – | -0.17 | -0.9 | – | – | – | -0.94 | – | – | – | – | – | – | – | – | – | -0.98 | – | Growth Rate (Fibroblast; 12 h, replicate number 1): 0.74
9 | CCn1c(CNC(=O)c2ncc(C)nc2N)[n+](CC)c2ccc(C(=O)N(C)CCN(C)C)cc21.Cl.Cl.[Cl-] | – | 0.58 | 0.97 | 0.03 | – | – | – | 1 | -0.3 | 0 | 0.9 | 0.9 | 0.97 | – | – | 0.31 | – | – | -1 | 0.98 | Growth Rate (U2OS; 6 h, replicate number 2): 0.99; Growth Rate (U2OS; 12 h, replicate number 1): 0.62; Growth Rate (Fibroblast; 12 h, replicate number 1): 0.87
10 | NC(=O)OC[C@H](NC(=O)Cn1nc(-c2ccc(Cl)cc2)n(C[C@H](O)C(F)(F)F)c1=O)c1cccc(C(F)(F)F)c1 | 0.95 | 0.83 | 0.9 | 0.72 | -0.43 | – | 0.84 | 0.71 | 0.27 | 0.56 | 0.84 | – | 0.8 | -0.17 | 0.7 | – | 0.75 | 0.65 | – | 0.71 | Growth Rate (U2OS; 12 h, replicate number 1): 0.85; Growth Rate (HEK-293T; 18 h, replicate number 2): 0.83; Growth Rate (HEK-293T; 24 h, replicate number 2): 0.79; Growth Rate (Fibroblast; 12 h, replicate number 1): 0.83
11 | CO[C@H]1CC[C@H](N(c2cc(F)c(Oc3ncc(Cn4nccn4)cc3C(F)(F)F)cc2C(=O)O)C(=O)[C@H]2CC[C@H](C)CC2)CC1 | 0.66 | 0.6 | – | 0.27 | -0.25 | – | – | – | – | 0.07 | 0.77 | 0.82 | – | -0.41 | 0.67 | – | – | – | -1 | 0.76 | Growth Rate (U2OS; 6 h, replicate number 2): 0.76; Growth Rate (U2OS; 18 h, replicate number 2): 1; Growth Rate (U2OS; 24 h, replicate number 2): 0.87
12 | COc1ccc2c(O[C@@H]3C[C@H]4C(=O)N[C@]5(C(=O)NS(=O)(=O)C6(C)CC6)CC5/C=C\CCCCC[C@H](NC(=O)c5ccn(C)n5)C(=O)N4C3)cc(OC(C)C)nc2c1C (stereo not given in full) | – | – | – | 1 | 0.49 | 0.89 | 0.9 | 0.9 | 0.85 | – | 0.9 | 0.63 | 0.8 | -0.88 | 0.88 | -0.46 | – | 0.84 | – | 0.9 | Growth Rate (U2OS; 6 h, replicate number 2): 0.93; Growth Rate (U2OS; 18 h, replicate number 1): 0.99; Growth Rate (U2OS; 18 h, replicate number 2): 0.79; Growth Rate (U2OS; 24 h, replicate number 2): 0.78
13 | Cc1nc2ccc(Cl)cc2c(-c2ccccc2)c1CC(=O)O.Cl | 0.45 | 0.43 | – | 0.38 | – | – | – | – | – | – | – | 0.93 | – | – | 0.96 | – | 0.53 | 0.88 | – | – | –
14 | C1CCC(NC2CCCCC2)CC1.Cc1cc(Cl)ccc1S(=O)(=O)NC[C@H]1C2CCC(CC2)[C@@H]1/C=C\CCCC(=O)O | – | – | – | 0.61 | – | – | – | – | -0.12 | 0.25 | – | – | – | 0.75 | – | – | 0.97 | 0.9 | – | – | Growth Rate (U2OS; 18 h, replicate number 2): 0.99
15 | CCCN1CCC(C#N)(NC(=O)[C@H](CC(C)(C)C)NC(=O)N2CCOCC2)CC1 | – | 0.96 | – | 0.04 | – | – | – | – | -0.89 | 0.97 | 0.83 | – | – | – | – | 0.82 | 0.45 | – | – | 0.88 | Growth Rate (Fibroblast; 12 h, replicate number 1): 0.82
16 | Cc1c(N2CCCC2)nc2ccc(Br)cc2c1C(=O)NC[C@H](CCC(=O)O)c1ccccc1Cl.Cl.O | – | 0.65 | 0.91 | 0.22 | -0.18 | – | – | – | -0.4 | 0.4 | – | – | – | – | – | -0.04 | 0.93 | – | -1 | – | Growth Rate (U2OS; 12 h, replicate number 1): 0.97; Growth Rate (U2OS; 18 h, replicate number 1): 0.93; Growth Rate (U2OS; 18 h, replicate number 2): 0.99; Growth Rate (U2OS; 24 h, replicate number 2): 0.92
17 | Nc1ncc2c(n1)-c1c([nH]c3ccc(C4=CCOCC4)cc13)CCC2 | – | 0.74 | 0.76 | 0.56 | -0.64 | -0.33 | 0.18 | 0.37 | -0.45 | – | 0.68 | 0.98 | -0.13 | – | 0.71 | 0.72 | 0.71 | 0.96 | – | 0.73 | Growth Rate (U2OS; 18 h, replicate number 1): 0.96; Growth Rate (HEK-293T; 6 h, replicate number 2): -0.1; Growth Rate (HEK-293T; 12 h, replicate number 2): -0.09; Growth Rate (HEK-293T; 18 h, replicate number 2): 0.36; Growth Rate (HEK-293T; 24 h, replicate number 2): 0.41; Growth Rate (Fibroblast; 12 h, replicate number 1): 0.69
18 | CCN1C(=O)c2cc(C)ccc2N(C)c2ncccc21 | – | – | – | 0.6 | 0.45 | 0.52 | 0.42 | 0.65 | -0.91 | 0.13 | – | 0.85 | 0.32 | 0.79 | – | 0.61 | 0.29 | 0.88 | -1 | 0.79 | Growth Rate (U2OS; 6 h, replicate number 2): 0.81; Growth Rate (U2OS; 12 h, replicate number 1): 0.87; Growth Rate (U2OS; 18 h, replicate number 2): 0.7; Growth Rate (U2OS; 24 h, replicate number 2): 0.8; Growth Rate (HEK-293T; 6 h, replicate number 2): 1; Growth Rate (HEK-293T; 12 h, replicate number 2): 0.41; Growth Rate (HEK-293T; 18 h, replicate number 2): 0.71; Growth Rate (HEK-293T; 24 h, replicate number 2): 0.74; Growth Rate (Fibroblast; 12 h, replicate number 1): 0.88
